Measured values reported in ChEMBL document CHEMBL1134095, “Biaryl ether retrohydroxamates as potent, long-lived, orally bioavailable MMP inhibitors” (Bioorg Med Chem Lett, 2001).

What was measured:
[1] = Half life determined in rat by intravenous administration; assay type: ADME, organism-based; conditions: in vivo
[2] = biological target: 72 kDa type IV collagenase (Homo sapiens, UniProt P08253); assay: In vitro inhibition of Matrix metalloprotease-2
[3] = Oral Bioavailability in rat; assay type: ADME, organism-based; conditions: in vivo
[4] = biological target: T1, Interstitial collagenase (Homo sapiens, UniProt P03956); assay: In vitro inhibition of Matrix metalloprotease-1.
T1 sequence (P03956 whole entry): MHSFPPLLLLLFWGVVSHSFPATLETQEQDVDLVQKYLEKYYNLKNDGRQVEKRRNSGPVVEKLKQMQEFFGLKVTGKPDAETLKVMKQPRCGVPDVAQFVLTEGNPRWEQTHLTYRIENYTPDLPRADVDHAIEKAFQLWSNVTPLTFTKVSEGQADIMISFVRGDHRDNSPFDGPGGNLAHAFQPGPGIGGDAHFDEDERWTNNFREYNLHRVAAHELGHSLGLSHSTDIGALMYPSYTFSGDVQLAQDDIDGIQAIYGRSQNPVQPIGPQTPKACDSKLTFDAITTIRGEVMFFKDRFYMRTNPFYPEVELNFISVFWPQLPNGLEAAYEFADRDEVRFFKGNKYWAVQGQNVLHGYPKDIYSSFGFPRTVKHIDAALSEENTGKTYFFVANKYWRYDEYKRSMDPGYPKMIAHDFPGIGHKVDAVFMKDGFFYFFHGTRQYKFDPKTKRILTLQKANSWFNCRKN

[5] = biological target: Stromelysin-1 (Homo sapiens, UniProt P08254); assay: In vitro inhibition of Matrix metalloprotease-3
Sequence of Stromelysin-1 (P08254 whole entry): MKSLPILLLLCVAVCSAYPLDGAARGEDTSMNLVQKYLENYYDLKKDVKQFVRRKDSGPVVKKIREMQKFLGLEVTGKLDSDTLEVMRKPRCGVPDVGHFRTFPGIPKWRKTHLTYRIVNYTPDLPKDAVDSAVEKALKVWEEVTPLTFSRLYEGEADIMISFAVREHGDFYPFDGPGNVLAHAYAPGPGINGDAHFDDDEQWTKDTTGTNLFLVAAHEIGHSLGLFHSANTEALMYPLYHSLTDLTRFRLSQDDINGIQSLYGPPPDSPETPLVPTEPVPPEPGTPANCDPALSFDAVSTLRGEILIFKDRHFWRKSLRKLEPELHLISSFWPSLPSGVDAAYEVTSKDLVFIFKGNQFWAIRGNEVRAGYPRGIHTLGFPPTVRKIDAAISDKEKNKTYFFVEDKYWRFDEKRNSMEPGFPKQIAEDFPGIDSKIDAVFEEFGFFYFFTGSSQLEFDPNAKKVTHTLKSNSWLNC

[6] = Half life after iv administration in cynomolgus monkey; assay type: ADME, organism-based, Macaca fascicularis; conditions: in vivo
[7] = Half life determined after intravenous administration at a dose of 3 mg/kg in cynomolgus monkey; assay type: ADME, organism-based, Macaca fascicularis; set-up: dose 3 mg/kg, route intravenous; conditions: in vivo
[8] = Area under curve determined after intravenous administration at a dose of 3 mg/kg in cynomolgus monkey; assay type: ADME, organism-based, Macaca fascicularis; set-up: dose 3 mg/kg, route intravenous; conditions: in vivo
[9] = Area under curve determined after peroral administration at a dose of 10 mg/kg in cynomolgus monkey; assay type: ADME, organism-based, Macaca fascicularis; set-up: dose 10 mg/kg, route oral; conditions: in vivo, po
[10] = Oral bioavailability in cynomolgus monkey; assay type: ADME, organism-based, Macaca fascicularis; conditions: in vivo
[11] = Area under curve determined after peroral administration at a dose of 3 mg/kg in cynomolgus monkey; assay type: ADME, organism-based, Macaca fascicularis; set-up: dose 3 mg/kg, route oral; conditions: in vivo, po
[12] = Bioavailability determined after oral administration in marmoset; assay type: ADME, organism-based; conditions: callitrichinae sp., in vivo

Sequence of 72 kDa type IV collagenase (P08253 whole entry): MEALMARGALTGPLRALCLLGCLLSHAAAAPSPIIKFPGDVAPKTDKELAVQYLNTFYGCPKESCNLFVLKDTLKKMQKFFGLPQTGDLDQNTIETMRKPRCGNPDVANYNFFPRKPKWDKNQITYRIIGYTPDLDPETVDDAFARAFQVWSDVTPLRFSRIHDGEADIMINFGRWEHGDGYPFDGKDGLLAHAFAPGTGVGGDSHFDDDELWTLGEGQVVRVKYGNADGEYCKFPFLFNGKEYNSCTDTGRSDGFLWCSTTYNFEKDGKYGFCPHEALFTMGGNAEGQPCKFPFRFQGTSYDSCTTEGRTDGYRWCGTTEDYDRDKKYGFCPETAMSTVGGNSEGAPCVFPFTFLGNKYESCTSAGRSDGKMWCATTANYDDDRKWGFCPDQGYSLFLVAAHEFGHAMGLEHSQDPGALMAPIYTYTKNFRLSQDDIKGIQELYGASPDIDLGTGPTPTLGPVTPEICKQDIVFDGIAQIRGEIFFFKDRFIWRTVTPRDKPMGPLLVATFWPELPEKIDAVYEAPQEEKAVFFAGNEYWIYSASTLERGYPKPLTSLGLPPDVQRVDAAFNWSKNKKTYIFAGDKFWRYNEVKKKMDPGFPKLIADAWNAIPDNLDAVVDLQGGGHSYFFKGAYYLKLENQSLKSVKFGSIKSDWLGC

Row | IC50 [2] [nM] | IC50 [4] [nM] | IC50 [5] [nM] | half-life [7] [h] | SMILES | also measured
1 | 58000 | – | 9.1 | 2.5 | CN1C(=O)N(CC(COc2ccc(-c3ccc(C#N)cc3)cc2)N(O)C=O)C(=O)C1(C)C (stereo unspecified) | AUC [8]: 15.2 uM hr l-1; AUC [9]: 11.8 uM hr l-1; bioavailability [10]: 23%
2 | 6900 | 14000 | 35 | 12.7 | CC1(C)NC(=O)N(CCC(COc2ccc(-c3ccc(C#N)cc3)cc2)N(O)C=O)C1=O (stereo unspecified) | AUC [8]: 47.5 uM hr l-1; AUC [11]: 2.4 uM hr l-1; bioavailability [10]: 6%
3 | 7800 | 2100 | 24 | 7.7 | CC1(C)NC(=O)N(CC(COc2ccc(-c3ccc(C#N)cc3)cc2)N(O)C=O)C1=O (stereo unspecified) | AUC [8]: 24 uM hr l-1; AUC [11]: 27.2 uM hr l-1; bioavailability [12]: 85%; bioavailability [10]: 110%
4 | 8200 | 2400 | 14 | 7.3 | N#Cc1ccc(-c2ccc(OCC(CN3C(=O)CNC3=O)N(O)C=O)cc2)cc1 (stereo unspecified) | AUC [8]: 59.8 uM hr l-1; AUC [11]: 68 uM hr l-1; bioavailability [10]: 100%
5 | 5200 | > 10000 | 11 | 0.6 | N#Cc1ccc(-c2ccc(OCC(CN3C(=O)CCC3=O)N(O)C=O)cc2)cc1 (stereo unspecified) | –
6 | 37000 | > 10000 | 21 | 0.3 | N#Cc1ccc(-c2ccc(OCC(CN3C(=O)c4ccccc4C3=O)N(O)C=O)cc2)cc1 (stereo unspecified) | –
7 | 12000 | 2400 | 27 | 1.8 | CCN1C(=O)N(CC(COc2ccc(-c3ccc(C#N)cc3)cc2)N(O)C=O)C(=O)C1(C)C (stereo unspecified) | AUC [8]: 12.3 uM hr l-1
8 | 25000 | 360 | 37 | – | CC1(C)CC(=O)N(CC(COc2ccc(-c3ccc(C#N)cc3)cc2)N(O)C=O)C(=O)C1 (stereo unspecified) | –

Further lines, the compound ahead of its results:

Row | SMILES | IC50 [2] [nM] | IC50 [4] [nM] | IC50 [5] [nM] | half-life [7] [h] | also measured
9 | CC(COc1ccc(-c2ccc(C#N)cc2)cc1)N(O)C=O (stereo unspecified) | 76000 | > 10000 | 620 | – | half-life [1]: 1.6 h; bioavailability [3]: 33%
10 | N#Cc1ccc(-c2ccc(OCC(COc3ccccc3)N(O)C=O)cc2)cc1 (stereo unspecified) | – | > 10000 | 130 | – | half-life [6]: < 1 h
11 | N#Cc1ccc(-c2ccc(OCCC(=O)NO)cc2)cc1 | 32 | 3.3 | 0.057 | – | –
12 | CC(C)CC(COc1ccc(-c2ccc(C#N)cc2)cc1)N(O)C=O (stereo unspecified) | – | > 10000 | 120 | – | half-life [6]: < 1 h
13 | N#Cc1ccc(-c2ccc(OCC(Cc3ccc(F)cc3)N(O)C=O)cc2)cc1 (stereo unspecified) | – | 14000 | 180 | – | half-life [6]: < 1 h
14 | N#Cc1ccc(-c2ccc(OCCNC(=O)NO)cc2)cc1 | > 100000 | > 50 | 80 | – | –
15 | N#Cc1ccc(-c2ccc(OCC(CSc3ccccc3)N(O)C=O)cc2)cc1 (stereo unspecified) | – | 4100 | 36 | 0.3 | half-life [6]: < 1 h
16 | N#Cc1ccc(-c2ccc(OCCN(O)C(N)=O)cc2)cc1 | 35000 | > 50 | > 100 | – | –
17 | N#Cc1ccc(-c2ccc(OCCC(=O)O)cc2)cc1 | 8000 | – | > 10 | – | –
18 | N#Cc1ccc(-c2ccc(OCC(c3ccc(F)cc3)N(O)C=O)cc2)cc1 (stereo unspecified) | – | > 10000 | 300 | – | half-life [6]: < 1 h
19 | Cc1ccc(=O)n(CC(COc2ccc(-c3ccc(C#N)cc3)cc2)N(O)C=O)n1 (stereo unspecified) | 3400 | 4200 | 37 | 0.5 | –
20 | CN1C(=O)N(CCC(COc2ccc(-c3ccc(C#N)cc3)cc2)N(O)C=O)C(=O)C1(C)C (stereo unspecified) | 45000 | > 10000 | 17 | 0.5 | AUC [8]: 8 uM hr l-1; AUC [9]: 1.8 uM hr l-1; bioavailability [10]: 6%
21 | CC(COc1ccc(-c2ccc(C#N)cc2)cc1)C(=O)NO (stereo unspecified) | 19000 | 2500 | 45 | – | half-life [1]: 0.3 h; bioavailability [3]: 7%
22 | N#Cc1ccc(-c2ccc(OCCN(O)C=O)cc2)cc1 | 400 | > 50 | 0.062 | – | –
23 | CC(=O)N(O)CCOc1ccc(-c2ccc(C#N)cc2)cc1 | 5900 | – | – | – | –
